The assay deals with carrageenan-induced hyperalgesia. To be noted: 0.1 mg/kg, s.c.

Experimental: Male Sprague-Dawley rats (175-200 g, Harlan Sprague Dawley, Indianapolis, Ind., USA) were housed and cared for in accordance with the guidelines of the Institutional Animal Care and Use Committee and in accordance with NIH guidelines on laboratory animal welfare. Rats received a subplantar injection of carrageenan (0.1 ml of a 1% suspension in 0.85% saline) into the right hind paw. A hyperalgesic response to heat was determined in the animals by Hargreaves' method (Hargreaves et al., 1988). Rats were individually confined and acclimated to Plexiglas chambers for 30 min. A mobile unit consisting of a high intensity projector bulb was positioned to deliver a thermal stimulus directly to an individual hind paw from beneath the chamber. The withdrawal latency period of injected and contralateral paws was determined to the nearest 0.1 sec with an electronic clock circuit and thermocouple. […] Each point will represent the change in withdrawal latency compared with control measurements taken prior to carrageenan injection.

Turning to `CN1CC[C@]23c4c5ccc(O)c4O[C@H]2[C@@H](O)C=C[C@H]3[C@H]1C5` [morphine], the inhibition of hyperalgesia entry was “modest inhibition of hyperalgesia”.

For the origin of these results see US9150837B2, “Polyethylene glycolated superoxide dismutase mimetics” (Galera Therapeutics, LLC, priority 2004, dated 2015).
